In patent publication US9211310B2, “Use of a Chinese medicine composition in preparing medicaments for treating secondary prevention of myocardial infarction” (TASLY PHARMACEUTICAL GROUP CO., LTD, priority 2010, dated 2015):

Test system: patients after acute myocardial infarction
Experiment: Life quality, Seattle Angina Questionnaire (SAQ), same clinical trial
Format: in vivo, human
Excerpt: 3508 patients who were in accordance with the diagnostic standards of AMI for 28 days to 2 years and differentiated as Qi deficiency and blood stagnation syndrome by TCM were studied. 0.5 g Chinese medicine composition prepared by the method of EXAMPLE 1 (Coded as QSYQ) was administrated half an hour after meal, 3 times per day.
There were 19 questions in the Seattle angina questionnaire (SAQ), including 5 parts: physical limitation (PL), anginal stability (AS), anginal frequency (AF), treatment satisfaction (TS) and disease perception (DP). After being given necessary explanation by doctors, the questions were answered independently by patients.
They included the overall survival time, angina pectoris score, TCM symptom score and life quality score, where angina pectoris score, TCM symptom score and life quality score were evaluated at randomization, in 1st, 3rd, 6th, 9th, 12th month after treatment and 18th month after follow-up.
All evaluation results of SAQ were described during the period of observation, and Wilcoxon rank sum test was used for inter-group comparison.
The evaluation results in the SAQ were depicted in different observations, and inter-group comparison was tested by Wilcoxon Rank-sum test.

## CC(=O)Oc1ccccc1C(=O)O [Control group, aspirine]
Baseline, FAS
  SAQ Question 1-9: Other reasons, % of cases: (5.84%)
  SAQ Question 1-9: Other reasons, cases: 99
  SAQ Question 1-9: Severely limited, % of cases: (47.34%)
  SAQ Question 1-9: Severely limited, cases: 802
  SAQ Question 1-9: Slightly limited, % of cases: (8.56%)
  SAQ Question 1-9: Slightly limited, cases: 145
Baseline, PP
  SAQ 2nd question: Clearly increased, % of cases: (3.09%)
  SAQ 2nd question: Clearly increased, cases: 46
  SAQ 2nd question: Clearly reduced, % of cases: (12.16%)
  SAQ 2nd question: Clearly reduced, cases: 181
  SAQ 2nd question: Same, % of cases: (63.00%)
  SAQ 2nd question: Same, cases: 938
  SAQ 2nd question: Slightly increased, % of cases: (6.72%)
  SAQ 2nd question: Slightly increased, cases: 100
  SAQ 2nd question: Slightly reduced, % of cases: (15.04%)
  SAQ 2nd question: Slightly reduced, cases: 224
  SAQ 3rd question: 1-2 times per week, % of cases: (15.04%)
  SAQ 3rd question: 1-2 times per week, cases: 224
  SAQ 3rd question: 1-3 times per day, % of cases: (6.72%)
  SAQ 3rd question: 1-3 times per day, cases: 100
  SAQ 3rd question: <1 time per week, % of cases: (12.16%)
  SAQ 3rd question: <1 time per week, cases: 181
  SAQ 3rd question: No onset, % of cases: (0.00%)
  SAQ 3rd question: No onset, cases: 0
  SAQ 3rd question: ≧3 times per week, % of cases: (63.00%)
  SAQ 3rd question: ≧3 times per week, cases: 938
  SAQ 3rd question: ≧4 times per day, % of cases: (3.09%)
  SAQ 3rd question: ≧4 times per day, cases: 46
  SAQ Question 1-3: Mildly limited, number of patients: 135
  SAQ Question 1-3: Mildly limited, percent of patients: (9.04%)
  SAQ Question 1-3: Moderately limited, number of patients: 44
  SAQ Question 1-3: Moderately limited, percent of patients: (2.95%)
  SAQ Question 1-3: Not limited, number of patients: 985
  SAQ Question 1-3: Not limited, percent of patients: (65.97%)
  SAQ Question 1-3: Other reasons, number of patients: 10
  SAQ Question 1-3: Other reasons, percent of patients: (0.67%)
  SAQ Question 1-3: Severely limited, number of patients: 12
  SAQ Question 1-3: Severely limited, percent of patients: (0.80%)
  SAQ Question 1-3: Slightly limited, number of patients: 307
  SAQ Question 1-3: Slightly limited, percent of patients: (20.56%)
  SAQ Question 1-4: Mildly limited, number of patients: 347
  SAQ Question 1-4: Mildly limited, percent of patients: (23.30%)
  SAQ Question 1-4: Moderately limited, number of patients: 185
  SAQ Question 1-4: Moderately limited, percent of patients: (12.42%)
  SAQ Question 1-4: Not limited, number of patients: 414
  SAQ Question 1-4: Not limited, percent of patients: (27.80%)
  SAQ Question 1-4: Other reasons, number of patients: 14
  SAQ Question 1-4: Other reasons, percent of patients: (0.94%)
  SAQ Question 1-4: Severely limited, number of patients: 51
  SAQ Question 1-4: Severely limited, percent of patients: (3.43%)
  SAQ Question 1-4: Slightly limited, number of patients: 478
  SAQ Question 1-4: Slightly limited, percent of patients: (32.10%)
  SAQ Question 1-5: Mildly limited, number of patients: 309
  SAQ Question 1-5: Mildly limited, percent of patients: (20.72%)
  SAQ Question 1-5: Moderately limited, number of patients: 210
  SAQ Question 1-5: Moderately limited, percent of patients: (14.08%)
  SAQ Question 1-5: Not limited, number of patients: 473
  SAQ Question 1-5: Not limited, percent of patients: (31.72%)
  SAQ Question 1-5: Other reasons, number of patients: 12
  SAQ Question 1-5: Other reasons, percent of patients: (0.80%)
  SAQ Question 1-5: Severely limited, number of patients: 46
  SAQ Question 1-5: Severely limited, percent of patients: (3.09%)
  SAQ Question 1-5: Slightly limited, number of patients: 441
  SAQ Question 1-5: Slightly limited, percent of patients: (29.58%)
  SAQ Question 1-9: Mildly limited, % of cases: (14.67%)
  SAQ Question 1-9: Mildly limited, cases: 213
  SAQ Question 1-9: Moderately limited, % of cases: (20.73%)
  SAQ Question 1-9: Moderately limited, cases: 301
  SAQ Question 1-9: Not limited, % of cases: (2.27%)
  SAQ Question 1-9: Not limited, cases: 33
  SAQ Question 1-9: Other reasons, % of cases: (6.34%)
  SAQ Question 1-9: Other reasons, cases: 92
  SAQ Question 1-9: Severely limited, % of cases: (48.55%)
  SAQ Question 1-9: Severely limited, cases: 705
  SAQ Question 1-9: Slightly limited, % of cases: (7.44%)
  SAQ Question 1-9: Slightly limited, cases: 108
FAS, 1 month after treatment
  8th question: Dissatisfied, patients (%): (0.34%)
